Assay results from ChEMBL document CHEMBL1138997, “Synthesis and antitumor activity of simplified ecteinascidin-saframycin analogs” (Bioorg Med Chem Lett, 2006).

What was measured:
Format in all cases: functional, cell-based
Conditions in all cases: Homo sapiens
Bel-7402 = experiment: Cytotoxicity against Bel7402 liver carcinoma cell
BGC-823 = experiment: Cytotoxicity against BGC823 gastric carcinoma cell
HCT-8 = experiment: Cytotoxicity against HCT8 colon carcinoma cell

Compound	IC50 (Bel-7402)	IC50 (BGC-823)	IC50 (HCT-8)
COc1cc2c(cc1OC)[C@@H]1[C@@H]3Cc4cc(OC)c(OC)cc4[C@H](COC(=O)c4ccccc4)N3[C@@H](C#N)[C@H](C2)N1C	590 nM	15 nM	440 nM
COc1cc2c(cc1OC)[C@@H]1[C@@H]3Cc4cc(OC)c(OC)cc4[C@H](COC(=O)c4cnccn4)N3[C@@H](C#N)[C@H](C2)N1C	3500 nM	1690 nM	3480 nM
COc1cc2c(cc1OC)[C@@H]1[C@@H]3Cc4cc(OC)c(OC)cc4[C@H](COC(=O)c4cccnc4)N3[C@@H](C#N)[C@H](C2)N1C	2100 nM	1020 nM	3280 nM
COc1cc2c(cc1OC)[C@@H]1[C@@H]3Cc4cc(OC)c(OC)cc4[C@H](CNC(=O)c4ccccc4)N3[C@@H](C#N)[C@H](C2)N1C	1350 nM	1400 nM	1350 nM
COc1cc2c(cc1OC)[C@@H]1[C@@H]3Cc4cc(OC)c(OC)cc4[C@H](CNC(=O)c4ccccc4Cl)N3[C@@H](C#N)[C@H](C2)N1C	1870 nM	1910 nM	1850 nM
COc1cc2c(cc1OC)[C@@H]1[C@@H]3Cc4cc(OC)c(OC)cc4[C@H](COC(C)=O)N3[C@@H](C#N)[C@H](C2)N1C	340 nM	150 nM	310 nM
COc1cc2c(cc1OC)[C@@H]1[C@@H]3Cc4cc(OC)c(OC)cc4[C@H](COC(=O)c4cccc(Cl)c4)N3[C@@H](C#N)[C@H](C2)N1C	1120 nM	29 nM	100 nM
COc1cc2c(cc1OC)[C@@H]1[C@@H]3Cc4cc(OC)c(OC)cc4[C@H](COC(=O)c4cncc(Br)c4)N3[C@@H](C#N)[C@H](C2)N1C	1490 nM	450 nM	1170 nM
COc1cc2c(cc1OC)[C@@H]1[C@@H]3Cc4cc(OC)c(OC)cc4[C@H](COC(=O)CCCc4ccccc4)N3[C@@H](C#N)[C@H](C2)N1C	120 nM	750 nM	830 nM
COc1cc2c(cc1OC)[C@@H]1[C@@H]3Cc4cc(OC)c(OC)cc4[C@H](CNC(=O)/C=C/c4ccccc4)N3[C@@H](C#N)[C@H](C2)N1C	1450 nM	1310 nM	1780 nM
COc1cc2c(cc1OC)[C@@H]1[C@@H]3Cc4cc(OC)c(OC)cc4[C@H](COC(=O)c4cc5ccccc5[nH]4)N3[C@@H](C#N)[C@H](C2)N1C	850 nM	10 nM	620 nM
COc1cc2c(cc1OC)[C@@H]1[C@@H]3Cc4cc(OC)c(OC)cc4[C@H](COC(=O)/C=C/c4ccccc4)N3[C@@H](C#N)[C@H](C2)N1C	680 nM	58 nM	37 nM
COc1cc2c(cc1OC)[C@@H]1[C@@H]3Cc4cc(OC)c(OC)cc4[C@H](COC(=O)c4cccs4)N3[C@@H](C#N)[C@H](C2)N1C	820 nM	210 nM	1600 nM
COc1cc2c(cc1OC)[C@@H]1[C@@H]3Cc4cc(OC)c(OC)cc4[C@H](COC(=O)c4cccc5ccccc45)N3[C@@H](C#N)[C@H](C2)N1C	710 nM	6 nM	340 nM
COc1cc2c(cc1OC)[C@@H]1[C@@H]3Cc4cc(OC)c(OC)cc4[C@H](CNC(=O)c4cccs4)N3[C@@H](C#N)[C@H](C2)N1C	790 nM	1160 nM	1280 nM
COc1cc2c(cc1OC)[C@@H]1[C@@H]3Cc4cc(OC)c(OC)cc4[C@H](COC(=O)Cc4ccc(F)cc4)N3[C@@H](C#N)[C@H](C2)N1C	200 nM	200 nM	240 nM
COc1cc2c(cc1OC)[C@@H]1[C@@H]3Cc4cc(OC)c(OC)cc4[C@H](CNC(=O)c4ccco4)N3[C@@H](C#N)[C@H](C2)N1C	1200 nM	1320 nM	1380 nM
C=CC(=O)NC[C@H]1c2cc(OC)c(OC)cc2C[C@H]2[C@H]3c4cc(OC)c(OC)cc4C[C@@H]([C@H](C#N)N12)N3C	1870 nM	2000 nM	2710 nM
COc1cc2c(cc1OC)[C@@H]1[C@@H]3Cc4cc(OC)c(OC)cc4[C@H](COC(=O)c4ccco4)N3[C@@H](C#N)[C@H](C2)N1C	750 nM	580 nM	690 nM
COc1ccc(CC(=O)OC[C@H]2c3cc(OC)c(OC)cc3C[C@H]3[C@H]4c5cc(OC)c(OC)cc5C[C@@H]([C@H](C#N)N23)N4C)cc1	3010 nM	1140 nM	3560 nM
COc1cc2c(cc1OC)[C@@H]1[C@@H]3Cc4cc(OC)c(OC)cc4[C@H](CNC(=O)c4cccc5ccccc45)N3[C@@H](C#N)[C@H](C2)N1C	2080 nM	1860 nM	1720 nM
COc1cc2c(cc1OC)[C@@H]1[C@@H]3Cc4cc(OC)c(OC)cc4[C@H](CNC(=O)c4ccc([N+](=O)[O-])cc4)N3[C@@H](C#N)[C@H](C2)N1C	1220 nM	1370 nM	1230 nM
COc1cc2c(cc1OC)[C@@H]1[C@@H]3Cc4cc(OC)c(OC)cc4[C@H](CNC(=O)c4cccc(Cl)c4)N3[C@@H](C#N)[C@H](C2)N1C	950 nM	1010 nM	1540 nM
CCC(=O)OC[C@H]1c2cc(OC)c(OC)cc2C[C@H]2[C@H]3c4cc(OC)c(OC)cc4C[C@@H]([C@H](C#N)N12)N3C	110 nM	150 nM	300 nM
C=CC(=O)OC[C@H]1c2cc(OC)c(OC)cc2C[C@H]2[C@H]3c4cc(OC)c(OC)cc4C[C@@H]([C@H](C#N)N12)N3C	760 nM	460 nM	2140 nM
COc1cc2c(cc1OC)[C@@H]1[C@@H]3Cc4cc(OC)c(OC)cc4[C@H](COC(=O)[C@H]4Cc5ccccc5CN4Cc4ccccc4)N3[C@@H](C#N)[C@H](C2)N1C	1690 nM	360 nM	1420 nM
COc1cc2c(cc1OC)[C@@H]1[C@@H]3Cc4cc(OC)c(OC)cc4[C@H](COC(=O)c4ccccn4)N3[C@@H](C#N)[C@H](C2)N1C	2020 nM	1440 nM	5150 nM
